# Data reported in US20070155736A1, “FLUORINATED PHNO AND ANALOGUES THEREOF” (Clara Inc., priority 2005, published 2007).
# Where a name gives a salt, the structure may show the parent alone.
# Key:
# [1] = molecular target: T1, high-affinity state of dopamine D2 receptors (Rattus norvegicus, UniProt P61169); assay: Biological potency on the high-affinity state of dopamine D2 receptors in rat homogenized striatal tissue; format: binding; conditions: [3H]-domperidone
# T1 construct: from tissue; host or cells: rat striatum, homogenized
# T1 sequence (P61169 whole entry): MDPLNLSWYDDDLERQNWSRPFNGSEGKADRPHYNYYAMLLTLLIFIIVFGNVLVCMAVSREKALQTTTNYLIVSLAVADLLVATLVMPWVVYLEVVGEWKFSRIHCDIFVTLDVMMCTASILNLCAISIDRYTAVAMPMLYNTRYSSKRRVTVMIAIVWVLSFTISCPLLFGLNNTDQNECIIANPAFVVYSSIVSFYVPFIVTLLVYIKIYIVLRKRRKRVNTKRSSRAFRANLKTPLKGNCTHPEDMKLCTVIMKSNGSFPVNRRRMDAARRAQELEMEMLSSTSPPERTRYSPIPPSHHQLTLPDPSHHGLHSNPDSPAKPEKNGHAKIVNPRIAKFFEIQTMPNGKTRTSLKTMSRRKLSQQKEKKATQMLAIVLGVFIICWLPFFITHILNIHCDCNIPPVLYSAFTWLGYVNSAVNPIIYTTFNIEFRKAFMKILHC
# Text: (§1) It is herein submitted that the short-term use of tracer doses of a compound of the invention, wherein R^1 is C1-6alkyl in which one hydrogen atom on the alkyl chain in replaced with radioactive fluoro, in radioimaging procedures will be of diagnostic and therapeutic importance in dopamine-related disorders.
# rat cloned D3 receptor = molecular target: T2, rat cloned D3 receptor (Rattus norvegicus, UniProt P19020); assay: Binding to rat cloned D3 receptor using 1.6 nM [3H]-raclopride
# T2 construct: expressed in transfected cells
# T2 sequence (P19020 whole entry): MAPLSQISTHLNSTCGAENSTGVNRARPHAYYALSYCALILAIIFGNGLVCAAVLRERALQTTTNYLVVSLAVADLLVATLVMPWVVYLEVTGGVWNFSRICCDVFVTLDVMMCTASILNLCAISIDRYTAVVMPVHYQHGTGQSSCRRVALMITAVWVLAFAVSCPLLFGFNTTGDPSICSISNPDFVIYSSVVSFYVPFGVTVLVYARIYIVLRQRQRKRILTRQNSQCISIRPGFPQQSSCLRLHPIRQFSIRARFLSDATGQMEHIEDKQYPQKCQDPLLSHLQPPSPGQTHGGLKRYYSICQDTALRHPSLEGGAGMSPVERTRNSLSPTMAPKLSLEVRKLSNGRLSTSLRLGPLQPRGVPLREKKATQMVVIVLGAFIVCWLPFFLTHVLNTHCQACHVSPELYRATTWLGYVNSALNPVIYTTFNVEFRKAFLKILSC
# Text: as §1
# D2^High receptors = D2^High receptors (Homo sapiens, UniProt P14416); conditions: human volunteer, PET
# Chain of D2^High receptors (P14416 whole entry): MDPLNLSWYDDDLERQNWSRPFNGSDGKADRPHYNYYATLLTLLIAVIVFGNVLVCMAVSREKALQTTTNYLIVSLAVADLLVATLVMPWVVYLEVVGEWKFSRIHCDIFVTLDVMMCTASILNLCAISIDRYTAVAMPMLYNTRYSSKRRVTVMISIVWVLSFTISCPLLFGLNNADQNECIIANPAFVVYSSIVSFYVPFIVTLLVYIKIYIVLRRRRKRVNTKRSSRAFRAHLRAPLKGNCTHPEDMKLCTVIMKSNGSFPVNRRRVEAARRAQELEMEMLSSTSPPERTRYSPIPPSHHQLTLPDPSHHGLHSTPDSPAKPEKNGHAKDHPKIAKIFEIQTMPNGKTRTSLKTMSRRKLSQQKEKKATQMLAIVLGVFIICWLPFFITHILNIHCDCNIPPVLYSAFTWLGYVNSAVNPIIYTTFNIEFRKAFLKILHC
# Description: After a brief transmission scan for attenuation correction of the emission scans, emission scans are obtained every minute for the first 15 min, and then every 5 min until the end of the study at 75 min. The PET scanning is conducted by using a dedicated brain scanner, GEMS PC2048-15B PET camera (General Electric Medical Systems) that produces fifteen 6.5 mm-thick slices with a resolution of 5-6 mm. The volunteer is scanned lying down and the head fixed by using a thermoplastic face mask. For accurate anatomical position of the various brain regions, each volunteer receives an MRI (magnetic resonance imaging) scan. The regions of interest are transferred to the PET images by using Alice™ 3.1 software.
# The regions of interest include the head of the caudate nucleus. […] Several hours after the initial injection of (+)-[^18F]-PHNO, a second injection of (+)-[^18F]-PHNO is given intravenously at the same time as a very low dose of non-radioactive (+)PHNO, (+)-F-PHNO or a very low dose of apomorphine. […] The density of the D2^High sites in the caudate nucleus that are labeled by (+)-[^18F]-PHNO is calculated, knowing the specific activity of the tracer injected and the amount of radioactivity detected by the positron imaging camera.
# [2] = in vivo; cited from earlier work
Kd [1] [nM],Kd (rat cloned D3 receptor) [nM],Compound,other results
,,"Oc1ccc2c(c1)[C@H]1OCCN(CCCF)[C@@H]1CC2 (as salt: hydrochloride) [(+)-F-PHNO, (4aR,10bR)-4-(3-Fluoropropyl)-3,4,4a,5,6,10b-hexahydro-2H-naphtho[1,2-b][1,4]oxazin-9-ol Hydrochloride]",melting point: 253 to 255 °C
20 ± 8.7,34,"Oc1ccc2c(c1)[C@H]1OCCN(CCCCF)[C@@H]1CC2 [(+)-F-But-HNO, (4aR,10bR)-4-(4-Fluorobutyl)-3,4,4a,5,6,10b-hexahydro-2H-naphtho[1,2-b][1,4]oxazin-9-ol Hydrochloride]",
1.7 ± 0.3,1.7,"Oc1ccc2c(c1)[C@H]1OCCN(CCF)[C@@H]1CC2 [(+)-F-EHNO, (4aR,10bR)-4-(2-Fluoroethyl)-3,4,4a,5,6,10b-hexahydro-2H-naphtho[1,2-b][1,4]oxazin-9-ol Hydrochloride]",
52 ± 27,45,"Oc1ccc2c(c1)[C@H]1OCCN(CCCCCCF)[C@@H]1CC2 [(+)-F-Hex-HNO, (4aR,10bR)-4-(6-Fluorohexyl)-3,4,4a,5,6,10b-hexahydro-2H-naphtho[1,2-b][1,4]oxazin-9-ol Hydrochloride]",
0.46 ± 0.06,0.38,"Oc1ccc2c(c1)[C@H]1OCCN(CCCF)[C@@H]1CC2 [(+)-F-PHNO, (4aR,10bR)-4-(3-Fluoropropyl)-3,4,4a,5,6,10b-hexahydro-2H-naphtho[1,2-b][1,4]oxazin-9-ol Hydrochloride]",
25 ± 4,54,"Oc1ccc2c(c1)[C@H]1OCCN(CCCCCF)[C@@H]1CC2 [(+)-F-Pent-HNO, (4aR,10bR)-4-(5-Fluoropentyl)-3,4,4a,5,6,10b-hexahydro-2H-naphtho[1,2-b][1,4]oxazin-9-ol Hydrochloride]",
,,"Oc1ccc2c(c1)[C@H]1OCCN(CCC[18F])[C@@H]1CC2 [(+)-[^18F]-PHNO, [^18F]-(4aR,10bR)-4-(3-fluoropropyl)-3,4,4a,5,6,10b-hexahydro-2H-naphtho[1,2-b][1,4]oxazin-9-ol]",peak emission in the caudate nucleus (D2^High receptors; at 10 minutes after i.v. injection): about 0.22 % of the injected dose per kg; time of peak emission in the caudate nucleus after intravenous injection (D2^High receptors; bolus plus infusion i.v.): 10 min
,,"CCCN1CCO[C@@H]2c3cc(O)ccc3CC[C@H]21.Cl [(+)PHNO, (+)-(4aR,10bR)-3,4,4a,5,6,10b-hexahydro-4-propyl-2H-naphth[1,2-b][1,4]oxazin-9-ol HCl]",effect in Parkinson's disease [2]: effective in alleviating Parkinson's disease
